From patent US20040086901A1, “Database for analyzing gene function and method of analyzing gene function by dspa” (priority 2000, published 2004)

What was measured:
Assay type in all cases: cell-based, mouse
[1] = tested on: NIH3T3 cells overexpressing Ha-ras; experiment: MTT cell viability, drug sensitivity of Ha-ras overexpressing cells vs parental line; details: Ha-ras high-expressing cells / parental cell line, 3 to 4 days
In short: (§1)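 Each full-length cDNA is expressed from a CMV vector in NIH3T3 cells, and a high-expressing clone is compared with the parental line. Viability is measured by MTT after 3–4 days with graded drug concentrations, and the log IC40 ratio is reported.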

[2] = tested on: NIH3T3 cells overexpressing v-src; experiment: MTT cell viability, v-src overexpressing cells vs parental line; details: v-src high-expressing cells / parental cell line, 3 to 4 days
In short: (§2)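 Stable NIH3T3 transfectants (cDNA in pRc-CMV-type vector, G-418-selected, high expressers picked by Western blot) and parental cells were seeded at 1×10^5 cells/ml into twofold serial drug dilutions and grown 3–4 days. MTT formazan was read at 574/655 nm, and log ratios of IC40 values were derived.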

[3] = tested on: NIH3T3 cells overexpressing erbB2; experiment: MTT cell viability, erbB2 overexpressing cells vs parental line; details: erbB2 high-expressing cells / parental cell line, 3 to 4 days
In short: as §2

[4] = tested on: NIH3T3 cells overexpressing TK; experiment: MTT cell viability, TK overexpressing cells vs parental line; details: TK high-expressing cells / parental cell line, 3 to 4 days
In short: as §2

[5] = tested on: NIH3T3 cells overexpressing CP-antisense; experiment: MTT cell viability, CP-antisense cells vs parental line; details: 3 to 4 days
In short: as §2

[6] = tested on: NIH3T3 cells overexpressing DAN; experiment: MTT cell viability, DAN overexpressing cells vs parental line; details: DAN high-expressing cells / parental cell line, 3 to 4 days
In short: as §2

[7] = tested on: NIH3T3 cells overexpressing Regucalcin; experiment: MTT cell viability, Regucalcin overexpressing cells vs parental line; details: Regucalcin high-expressing cells / parental cell line, 3 to 4 days
In short: as §2

[8] = tested on: NIH3T3 cells overexpressing cystatin alpha; experiment: MTT cell viability, cystatin alpha overexpressing cells vs parental line; details: cystatin alpha high-expressing cells / parental cell line, 3 to 4 days
In short: as §2

[9] = tested on: NIH3T3 cells overexpressing cystatin E; experiment: MTT cell viability, cystatin E overexpressing cells vs parental line; details: cystatin E high-expressing cells / parental cell line, 3 to 4 days
In short: as §2

[10] = tested on: NIH3T3 cells overexpressing caspase-1; experiment: MTT cell viability, caspase-1 overexpressing cells vs parental line; details: caspase-1 high-expressing cells / parental cell line, 3 to 4 days
In short: as §1

[11] = tested on: NIH3T3 cells overexpressing caspase-3; experiment: MTT cell viability, caspase-3 overexpressing cells vs parental line; details: caspase-3 high-expressing cells / parental cell line, 3 to 4 days
In short: as §1

[12] = tested on: NIH3T3 cells overexpressing caspase-2; experiment: MTT cell viability, caspase-2 overexpressing cells vs parental line; details: caspase-2 high-expressing cells / parental cell line, 3 to 4 days
In short: as §2

[13] = tested on: NIH3T3 cells overexpressing RhoA; experiment: MTT cell viability, RhoA overexpressing cells vs parental line; details: RhoA high-expressing cells / parental cell line, 3 to 4 days
In short: as §2

[14] = tested on: NIH3T3 cells overexpressing PKCalpha-KN; experiment: MTT cell viability, PKCalpha-KN overexpressing cells vs parental line; details: 3 to 4 days
In short: as §1

[15] = tested on: NIH3T3 cells overexpressing p38-DN; experiment: MTT cell viability, p38-DN overexpressing cells vs parental line; details: p38-DN high-expressing cells / parental cell line, 3 to 4 days
In short: as §1

[16] = tested on: NIH3T3 cells overexpressing CaMKIIa; experiment: MTT cell viability, CaMKIIa overexpressing cells vs parental line; details: CaMKIIa high-expressing cells / parental cell line, 3 to 4 days
In short: as §1

[17] = tested on: NIH3T3 cells overexpressing HNF1; experiment: MTT cell viability, HNF1 overexpressing cells vs parental line; details: HNF1 high-expressing cells / parental cell line, 3 to 4 days
In short: as §1

[18] = tested on: NIH3T3 cells overexpressing HNF3b; experiment: MTT cell viability, HNF3b overexpressing cells vs parental line; details: HNF3b high-expressing cells / parental cell line, 3 to 4 days
In short: as §1

[19] = tested on: NIH3T3 cells overexpressing coup; experiment: MTT cell viability, coup overexpressing cells vs parental line; details: coup high-expressing cells / parental cell line, 3 to 4 days
In short: as §2

[20] = tested on: NIH3T3 cells overexpressing p33/ING1; experiment: MTT cell viability, p33/ING1 overexpressing cells vs parental line; details: p33/ING1 high-expressing cells / parental cell line, 3 to 4 days
In short: as §2

[21] = PKCalpha-KN (first of two lines) high-expressing cells / parental cell line
[22] = PKCalpha-KN (second of two lines) high-expressing cells / parental cell line

| SMILES | logarithmic value of ratio of IC40 values [1] | logarithmic value of ratio of IC40 values [2] | logarithmic value of ratio of IC40 values [3] | logarithmic value of ratio of IC40 values [4] | logarithmic value of ratio of IC40 values [5] | logarithmic value of ratio of IC40 values [6] | logarithmic value of ratio of IC40 values [7] | logarithmic value of ratio of IC40 values [8] | logarithmic value of ratio of IC40 values [9] | logarithmic value of ratio of IC40 values [10] | logarithmic value of ratio of IC40 values [11] | logarithmic value of ratio of IC40 values [12] | logarithmic value of ratio of IC40 values [13] | logarithmic value of ratio of IC40 values [14, 21] | logarithmic value of ratio of IC40 values [14, 22] | logarithmic value of ratio of IC40 values [15] | logarithmic value of ratio of IC40 values [16] | logarithmic value of ratio of IC40 values [17] | logarithmic value of ratio of IC40 values [18] | logarithmic value of ratio of IC40 values [19] | also measured |
| --- | --- | --- | --- | --- | --- | --- | --- | --- | --- | --- | --- | --- | --- | --- | --- | --- | --- | --- | --- | --- | --- |
| C/C=C(/C)C(=O)O[C@H]1C(C)=C2[C@H]([C@@H]1OC(=O)CCCCCCC)[C@@](C)(OC(C)=O)C[C@H](OC(=O)CCC)[C@@]1(O)[C@H]2OC(=O)[C@@]1(C)O [Thapsigargin, thapsigargin] | 0.00 | 0.32 | 0.11 | 0.06 | −0.30 | 0.18 | 0.20 | 0.04 | 0.00 | −0.30 | −0.17 | −0.07 | 0.26 | 0.10 | 0.12 | 0.02 | 0.09 | 0.16 | 0.24 | −0.30 | logarithmic value of ratio of IC40 values [20]: 0.49 |
| O=[As]O [NaAsO2, sodium arsenite] | 0.04 | 0.11 | −0.15 | 0.18 | 0.02 | −0.15 | 0.03 | −0.05 | 0.15 | −0.21 | 0.11 | 0.18 | 0.07 | 0.16 | 0.22 | 0.00 | 0.00 | −0.14 | 0.00 | −0.19 | logarithmic value of ratio of IC40 values [20]: −0.07 |
| C=C[C@@]1(C)CC(=O)[C@]2(O)[C@@]3(C)[C@@H](O)CCC(C)(C)[C@@H]3[C@H](O)[C@H](OC(C)=O)[C@@]2(C)O1 [Forskolin, forskolin] | 0.26 | −0.46 | 0.28 | 0.56 | −0.05 | 0.88 | −0.10 | 0.72 | 0.29 | 0.34 | 1.12 | −0.34 | 0.47 | −0.47 | 0.00 | −0.46 | 0.00 | 1.15 | 0.00 | 0.78 | logarithmic value of ratio of IC40 values [20]: 0.63 |
| C[C@@H]1C[C@@H]([C@H](O)CC2CC(=O)NC(=O)C2)C(=O)[C@@H](C)C1 [CHX, cycloheximide] | −0.19 | −0.32 | −0.64 | −0.13 | 0.00 | 0.72 | 0.08 | 0.34 | 0.00 | −0.05 | 0.10 | 0.74 | 0.14 | 0.30 | 0.29 | 0.04 | 0.04 | 0.38 | 0.07 | 0.12 | logarithmic value of ratio of IC40 values [20]: −0.30 |
